Read-outs that look alike come from different tables or passages of the source.
Key:
NEK1 = molecular target: T1, NEK1 (Homo sapiens, UniProt Q96PY6); details: cited from earlier work
T1 sequence (Q96PY6 1-1258): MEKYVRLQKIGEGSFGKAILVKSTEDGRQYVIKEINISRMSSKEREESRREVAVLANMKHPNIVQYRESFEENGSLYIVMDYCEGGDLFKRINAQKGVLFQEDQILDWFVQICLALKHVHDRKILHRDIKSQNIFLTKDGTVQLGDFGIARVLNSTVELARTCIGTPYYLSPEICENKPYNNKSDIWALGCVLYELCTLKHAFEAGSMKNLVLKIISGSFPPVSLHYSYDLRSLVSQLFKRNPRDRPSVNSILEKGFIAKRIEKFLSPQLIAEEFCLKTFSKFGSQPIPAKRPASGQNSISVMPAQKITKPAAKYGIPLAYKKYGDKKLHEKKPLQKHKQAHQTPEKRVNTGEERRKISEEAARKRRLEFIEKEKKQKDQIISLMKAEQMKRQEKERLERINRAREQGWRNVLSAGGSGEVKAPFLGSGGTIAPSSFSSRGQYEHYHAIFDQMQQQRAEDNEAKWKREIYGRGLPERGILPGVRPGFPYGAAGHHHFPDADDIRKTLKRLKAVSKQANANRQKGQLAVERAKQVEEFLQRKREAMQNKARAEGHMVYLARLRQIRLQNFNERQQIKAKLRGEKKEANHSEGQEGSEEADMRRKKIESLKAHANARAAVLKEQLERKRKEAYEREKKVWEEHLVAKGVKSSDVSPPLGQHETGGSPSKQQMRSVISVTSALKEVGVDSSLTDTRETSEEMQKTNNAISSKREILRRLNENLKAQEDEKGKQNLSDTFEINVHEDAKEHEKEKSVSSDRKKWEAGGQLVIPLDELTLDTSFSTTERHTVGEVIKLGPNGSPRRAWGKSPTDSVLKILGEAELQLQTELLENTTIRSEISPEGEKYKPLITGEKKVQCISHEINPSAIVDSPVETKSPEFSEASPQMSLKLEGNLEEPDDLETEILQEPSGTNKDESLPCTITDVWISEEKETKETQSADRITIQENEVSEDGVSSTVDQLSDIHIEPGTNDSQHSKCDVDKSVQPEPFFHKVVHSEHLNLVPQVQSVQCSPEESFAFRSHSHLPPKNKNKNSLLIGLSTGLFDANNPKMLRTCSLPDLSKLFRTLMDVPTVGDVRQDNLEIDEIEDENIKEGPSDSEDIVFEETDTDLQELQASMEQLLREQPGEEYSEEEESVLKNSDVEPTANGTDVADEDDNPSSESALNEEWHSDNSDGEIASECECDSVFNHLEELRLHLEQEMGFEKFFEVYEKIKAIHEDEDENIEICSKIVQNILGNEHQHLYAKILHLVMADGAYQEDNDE

MDA-MB-468 cells [1] = assay: Dose-matrix combination assay (synergy score, Loewe model); type: cell-based; details: combination with DUBA; MDA-MB-468, 6 d; S ± SD; cutoff ±1
Description: (§1) Dose-matrix combination assays were performed as described above, but performed in opague 384-well plates (2k viable cells/well). Compounds were added using Tecan D300e liquid. Protein solutions were supplemented with 0.3% Tween-20 (final) and diluted to 1 μM. All wells were normalized to the maximum amount of DMSO (maximum 0.4%) or Tween-20 added. […] Luminescence values were normalized to luminescence of non-treated cells and dose-response was fitted using Smart Fit. Synergy scores were calculated using LOEWE synergy model.
(§2) The screening of synergistic drug combinations can be accomplished by performing a dose-matrix assay. Therefore, two drugs are serial diluted and mixed at every dose level, yielding a dose-matrix. The drug combination can be additive if the effects of the combination are identical to the added effects of the single agents. However, the effects of the combination might also be stronger than the activity of the single agents. This scenario is termed synergy, whereas weaker combination effects compared to the single agents are termed antagonism. A dose-matrix assay is depicted schematically in FIG. 2 which illustrates the outcomes of a dose-matrix assay: additivity, antagonism and synergy.
(§3) The screening was conducted by serial diluting the duocarmycin derivative DUBA (10) and the DDR inhibitors. […] DUBA was combined in a dose-matrix assay with hycanthone. The cell viability was measured after 6 d of treatment using the CellTiter-Glo assay kit. The signals of the cell viability assay were normalized to untreated cells and fitted. […] By subtracting the modeled data from the fitted data, an excess matrix was generated. The excess matrix can be considered as a visualization of the differences between model and actual data which also highlights spots of either high synergy or antagonism. The quantification of the combination effects, however, was performed by calculating synergy scores. […] Besides synergy score, the potency of the drugs in monotherapy was obtained from these experiments. […] The potency was obtained from this dose-response curve.
(§4) The scattering of S was determined in a sham control experiment to define a cutoff for classifying a combination as truly synergistic or antagonistic. Thus seven different compounds were combined with itself on four different cell lines and the three-σ confidence interval was calculated around the mean of the measurement. […] For the sake of convenience, the cutoff was set to a value of ±1.
(§5) Synergy scores (S) were obtained from the combination experiments that indicated additivity […] if model and actual response were equal. […] The magnitude of the score determined the extent of the combination effects.

HCC-1954 cells [2] = assay: as above; type: cell-based
Description: as §1, §2, §3, §4, §5

SK-OV-3 cells = assay: MNED curve-shift assay; type: cell-based
From the text: (§6) Therefore a curve-shift assay system was established. In a first step, a dose-response curve (DRC) is obtained by treating a certain cell line with an inhibitor. The maximum non-efficacious dose (MNED) can be derived from this DRC. MNED is the highest dose, that can be added to a certain cell line without affecting the viability. The activity of the ADC is confirmed in a separate experiment. Finally, a combination experiment can be conducted. Therefore, the ADC and ADC plus inhibitor at MNED are added to the cells. The inhibitor is tested in parallel at MNED as a control. Due to the application of inhibitor at MNED, no reduction in cell viability caused by the inhibitor is expected. Three outcomes are possible: 1) The combination of ADC plus inhibitor is equipotent as the ADC only. […] Such a result would be interpreted as depotentiation. […] In this case, the potency of the ADC is potentiated.
(§7) Potentiation effects are expressed as dose-reduction indices (DRI), which can be calculated by dividing the IC50-value of ADC by the IC50-value of ADC plus inhibitor according to eq. 1
(§8) Curve-shift assays were conducted as follows: The cell number and viability was determined using ViCell™-XR (Beckman Coulter) and seeded in opague 96-well plate (10k viable cells/well). After seeding, the plate was incubated (37° C., 5% C02) in a humid chamber overnight. Compounds were diluted in the appropriate medium, added to the cells and the plate was incubated (37° C., 5% CO2, 6 d) in a humid chamber. After 30 min equilibration at room temperature, CellTiter-Glo reagent (Promega) was added. After the plate was shaken (3 min, 550 rpm, rt) it was incubated (10 min, rt) and luminescence was read on a synergy 4 plate reader (BioTek). Evaluation was performed using GraphPad Prism version 6.05. Therefor luminescence values were normalized to luminescence values of non-treated cells and dose-response was fitted with 4-point logistic fit.
(§9) The determination of dose-reduction indices (DRI) in a maximum non-efficacious dose (MNED) curve-shift assay is a 3-step process as depicted exemplarily in FIG. 13. The cytotoxicity of the ADC is confirmed in a cell viability assay in an initial step. […] In the second step. the MNED of the ATRi was determined. […] In order to obtain a full […] for the combination, the starting concentration of the ADC was lowered compared to the experiment in step 1.

SK-BR-3 cells = assay: MNED curve-shift assay; type: cell-based
From the text: as §6, §7, §8, §9

BT-474 cells = assay: MNED curve-shift assay; type: cell-based
From the text: as §6, §7, §8, §9

MDA-MB-453 cells = assay: MNED curve-shift assay; type: cell-based
From the text: as §6, §7, §8, §9

MDA-MB-468 cells [3] = assay: MNED curve-shift assay; type: cell-based
From the text: as §6, §7, §8, §9

JIMT-1 cells = assay: MNED curve-shift assay; type: cell-based
From the text: as §6, §7, §8, §9

Calu-3 cells = assay: MNED curve-shift assay; type: cell-based
From the text: as §6, §7, §8, §9

HCC-1954 cells [4] = assay: MNED curve-shift assay; type: cell-based; details: HCC-1954
From the text: as §6, §7, §8, §9

HCC-1954 cells [5] = assay: Cytotoxicity (cell viability, CellTiter-Glo, 6 d); type: cell-based; details: Homo sapiens, HCC1954, HCC-1954
Description: as §1
After 6 d of treatment, CellTiter-Glo luminescent assay was performed and the luminescence was read on Envision Reader. The results were analyzed using GeneData Screener as described before.

MCF7 cells = assay: Cytotoxicity (cell viability); type: cell-based; details: Homo sapiens; MCF7 (EGFR −, MET −), Table 10
Description: as §8
(§10) Dose-matrix combination assays were performed as described above, but performed in opague 384-well plates (2k viable cells/well). Compounds were added using Tecan D300e liquid. Protein solutions were supplemented with 0.3% Tween-20 (final) and diluted to 1 μM. All wells were normalized to the maximum amount of DMSO (maximum 0.4%) or Tween-20 added. Read out of luminescence was performed on Envision 2104 Multilabel Reader (Perkin Elmer) and data were evaluated using Genedata Screener® version 14.0.6-Standard (Genedata AG). Luminescence values were normalized to luminescence of non-treated cells and dose-response was fitted using Smart Fit. Synergy scores were calculated using LOEWE synergy model.

A549 cells = assay: Dose-matrix combination assay (synergy score, Loewe model); type: cell-based; details: combination with AZD6738; A549 (EGFR-positive), 6 d
Description: as §10, §2

MDA-MB-468 cells [6] = assay: Cytotoxicity (cell viability, CellTiter-Glo, 6 d); type: cell-based; details: Homo sapiens, MDA-MB-468; read-out: IC50
[7] = combination with DUBA, HCC-1954, 6 d, S ± SD, cutoff ±1

| SMILES | potency of NEK1 inhibition (NEK1) | Synergy score S (MDA-MB-468 cells [1]) | Synergy score S (HCC-1954 cells [2]; [7]) | Synergy score S (HCC-1954 cells [2]; combination with ADC αHER2-2, HCC-1954) | MNED (maximum non-efficacious dose) (SK-OV-3 cells) | MNED (maximum non-efficacious dose) (SK-BR-3 cells) | MNED (maximum non-efficacious dose) (BT-474 cells) | MNED (maximum non-efficacious dose) (MDA-MB-453 cells) | MNED (maximum non-efficacious dose) (MDA-MB-468 cells [3]) | MNED (maximum non-efficacious dose) (JIMT-1 cells) | MNED (maximum non-efficacious dose) (Calu-3 cells) | MNED (maximum non-efficacious dose) (HCC-1954 cells [4]) | IC50 (HCC-1954 cells [5]; ATRi alone, mean ± SD, read-out: Cytotoxicity IC50) | Synergy score S (HCC-1954 cells [2]; combination with AZD6738, HCC-1954, 6 d) | Synergy score S (HCC-1954 cells [2]; combination with AZD6738, HCC-1954, 6 d, listed as DSA (13)) | IC50 (MCF7 cells) | Synergy score S (A549 cells) | IC50 (MDA-MB-468 cells [6]) | IC50 (HCC-1954 cells [5]; duocarmycin variant alone, mean ± SD or mean (individual values), read-out: IC50) |
| --- | --- | --- | --- | --- | --- | --- | --- | --- | --- | --- | --- | --- | --- | --- | --- | --- | --- | --- | --- |
| COc1cc(-c2cnc(N)c(N3CC[C@@H](C(=O)O)[C@@H](C)[C@H]3C)n2)cc(OC)c1OC [Cmpd31] | 170 nM | 0.4±0.2 | 0.3±0.1 | – | – | – | – | – | – | – | – | – | – | – | – | – | – | – | – |
| CNCc1ccc(-c2cc(-c3nc(-c4ccc(S(=O)(=O)C(C)C)cc4)cnc3N)on2)cc1 [VE-822] | – | – | 5.3±0.6 | 5.7±0.3 | 125 nM | 125 nM | 1000 nM | 40 nM | 300 nM | 80 nM | 80 nM | 250 nM | 900 ± 400 nM | – | – | – | – | – | – |
| COC(=O)c1cc2c3c(cc(O)c2[nH]1)N(C(=O)c1cc2cc(OC)c(OC)c(OC)c2[nH]1)C[C@H]3CCl [compound 13] | – | – | – | – | – | – | – | – | – | – | – | – | – | 4.1 ± 0.4 | 4.1±0.4 | 0.06 ± 0.02 nM | additive effects | 0.14 ± 0.07 nM | 0.3 ± 0.1 nM |

Source: patent US12616750B2, “Combination therapy utilizing DNA alkylating agents and ATR inhibitors” (Merck Patent GmbH, priority 2018, dated 2026)
